17 compounds from patent publication US9918990B2, “Substituted pyrrolo[2,3-c]pyridines and pyrazolo[3,4-c]pyridines as BET protein inhibitors” (Incyte Corporation, priority 2013, dated 2018) can be followed below.

The subject of test [1] is C-myc. Put plainly: KMS.12.BM C-myc ELISA assay. The conditions noted are these: Homo sapiens; KMS.12.BM cells, 2 hours, concentration required for 50% C-myc inhibition. In kind it is cell-based. The procedure: KMS.12.BM cell line (human myeloma) was purchased from JCRB (Osaka, Japan) and maintained in RPMI with 10% FBS culture medium. To measure the C-myc inhibitory activity of the compounds, the KMS.12.BM cells are plated in the RPMI culture medium at 75000 cells/well/per 200 μL into a 96-well flat bottom polystyrene tissue culture plate (Corning through VWR, NJ), in the presence or absence of a concentration range of test compounds. After 2 hours, cell are pelleted and lysed with Cell Extraction Buffer (BioSource, Carlsbad, Calif.) in the presence of protease inhibitors (Life Technologies, Grand Island, N.Y. and Sigma, St Louis, Mo.). Clarified lyses are tested in a C-myc commercial ELISA (Life Technologies, Grand Island, N.Y.). Compound inhibition is determined relative to cells cultured with no drug and the IC50 is reported as the compound concentration required for 50% C-myc inhibition. IC50 data for the Examples is presented in Table 10 as determined by Assay C1.
Background: In an ELISA, binding on a coated surface is turned into a signal by an enzyme label.

In test [2] the test system is KMS.12.BM cells. Put plainly: KMS.12.BM cell viability assay (Cell Titer-GLO, ATP quantitation). It is filed as cell-based. Particulars: Homo sapiens, 72 h, 3 days, concentration required for 50% cell death, read-out: KMS cellular IC50. In a few lines:
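Human myeloma KMS.12.BM cells, 5000 cells/well in RPMI with 10% FBS, were exposed to a compound concentration range for 3 days. Viability was read by Cell Titer-GLO ATP luminescence relative to untreated cells; IC50 is the concentration giving 50% cell death.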

Test [3] deals with BRD4-BD2 (Homo sapiens (Human), UniProt O60885). Put plainly: BRD4 AlphaScreen assay, BRD4-BD2. The conditions noted are these: H4Ac4 peptide, 75 min, room temperature, read-out: BRD4 BD-2 enzyme IC50. It is filed as binding. In a few lines: (§1)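 AlphaScreen read after 75 min dark incubation at room temperature, inhibitors serially diluted in DMSO and added before other components. IC50 from fit of percent control activity versus log inhibitor concentration.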
A general note: Bead proximity is the source of the signal in Alpha formats.

Test [4] has as its target BRD4-BD1 (Homo sapiens (Human), UniProt O60885). Put plainly: BRD4 AlphaScreen assay, BRD4-BD1. In kind it is binding. Particulars: H4Ac4 peptide, 75 min, room temperature, read-out: BRD4 BD-1 enzyme IC50. An outline of the steps: as §1

pIC50: −log10 of the molar value. Bounds are passed on as bounds.

Regarding `Cn1cc(-c2ccc3c(ncn3CC(=O)N3CCOCC3)c2Oc2ccc(F)cc2F)c2cc[nH]c2c1=O` [Example 31, 4-[4-(2,4-difluorophenoxy)-1-(2-morpholin-4-yl-2-oxoethyl)-1H-benzimidazol-5-yl]-6-methyl-1,6-dihydro-7H-pyrrolo[2,3-c]pyridin-7-one], the pIC50 in test [1] is at least 6.00; in test [2], at least 6.00; in test [3] it was above 7.00; in test [4] it was above 7.00.
With `COc1c(-c2cn(C)c(=O)c3[nH]ccc23)ccc2c1[nH]c(=O)n2C` [Example 32, 4-Methoxy-1-methyl-5-(6-methyl-7-oxo-6,7-dihydro-1H-pyrrolo[2,3-c]pyridin-4-yl)-1,3-dihydro-2H-benzimidazol-2-one], the pIC50 was at least 6.00 in test [1], at least 6.00 in test [2], above 7.00 in test [3] and 6.00 to 7.00 in test [4].
With `CN(C)C(=O)Cn1cnc2c(Oc3ccc(F)cc3F)c(-c3cn(C)c(=O)c4[nH]ccc34)ccc21` [Example 34, 2-[4-(2,4-difluorophenoxy)-5-(6-methyl-7-oxo-6,7-dihydro-1H-pyrrolo[2,3-c]pyridin-4-yl)-1H-benzimidazol-1-yl]-N,N-dimethylacetamide], the pIC50 in test [1] is at least 6.00; in test [2], at least 6.00; in test [3], above 7.00; in test [4] it was above 7.00.
Consider `CNC(=O)Cn1cnc2c(Oc3ccc(F)cc3F)c(-c3cn(C)c(=O)c4[nH]ccc34)ccc21` [Example 36, 2-[4-(2,4-difluorophenoxy)-5-(6-methyl-7-oxo-6,7-dihydro-1H-pyrrolo[2,3-c]pyridin-4-yl)-1H-benzimidazol-1-yl]-N-methylacetamide], for which the pIC50 in test [1] is at least 6.00; in test [2] it was at least 6.00; in test [3] it was above 7.00; in test [4], above 7.00.
Consider `Cn1cc(-c2ccc3c([nH]c(=O)n3C)c2OCC2CCC2)c2cc[nH]c2c1=O` [Example 37, 4-(Cyclobutylmethoxy)-1-methyl-5-(6-methyl-7-oxo-6,7-dihydro-1H-pyrrolo[2,3-c]pyridin-4-yl)-1,3-dihydro-2H-benzimidazol-2-one], for which the pIC50 in test [1] is at least 6.00; in test [2], at least 6.00; in test [3], above 7.00; in test [4] it was above 7.00.
On to `Cn1cc(-c2ccc3c([nH]c(=O)n3C)c2Oc2ccccc2)c2cc[nH]c2c1=O` [Example 38, 1-Methyl-5-(6-methyl-7-oxo-6,7-dihydro-1H-pyrrolo[2,3-c]pyridin-4-yl)-4-phenoxy-1,3-dihydro-2H-benzimidazol-2-one], for which the pIC50 in test [1] was at least 6.00; in test [2], at least 6.00; in test [3], above 7.00; in test [4], above 7.00.
Turning to `Cn1cc(-c2ccc3c([nH]c(=O)n3C)c2Oc2ccccc2F)c2cc[nH]c2c1=O` [Example 39, 4-(2-Fluorophenoxy)-1-methyl-5-(6-methyl-7-oxo-6,7-dihydro-1H-pyrrolo[2,3-c]pyridin-4-yl)-1,3-dihydro-2H-benzimidazol-2-one], the pIC50 is at least 6.00 in test [1], at least 6.00 in test [2], above 7.00 in test [3] and above 7.00 in test [4].
Consider `Cn1cc(-c2ccc3c([nH]c(=O)n3C)c2Oc2cccc(F)c2)c2cc[nH]c2c1=O` [Example 40, 4-(3-Fluorophenoxy)-1-methyl-5-(6-methyl-7-oxo-6,7-dihydro-1H-pyrrolo[2,3-c]pyridin-4-yl)-1,3-dihydro-2H-benzimidazol-2-one], for which the pIC50 in test [1] is at least 6.00; in test [2] it was at least 6.00; in test [3], above 7.00; in test [4], above 7.00.
Take `Cn1cc(-c2ccc3c([nH]c(=O)n3C)c2Oc2ccc(F)cc2)c2cc[nH]c2c1=O` [Example 41, 4-(4-Fluorophenoxy)-1-methyl-5-(6-methyl-7-oxo-6,7-dihydro-1H-pyrrolo[2,3-c]pyridin-4-yl)-1,3-dihydro-2H-benzimidazol-2-one]: the pIC50 in test [1] is at least 6.00; in test [2], at least 6.00; in test [3], above 7.00; in test [4] it was above 7.00.
As to `Cn1cc(-c2ccc3ncn(CCN4CCOCC4)c3c2Oc2ccccc2)c2cc[nH]c2c1=O` [Example 42, 6-Methyl-4-[1-(2-morpholin-4-ylethyl)-7-phenoxy-1H-benzimidazol-6-yl]-1,6-dihydro-7H-pyrrolo[2,3-c]pyridin-7-one], the pIC50 in test [1] was at least 6.00; in test [2], at least 6.00; in test [3], above 7.00; in test [4], above 7.00.
In the case of `Cn1cc(-c2ccc3c(ncn3CCN3CCOCC3)c2Oc2ccccc2)c2cc[nH]c2c1=O` [Example 43, 6-methyl-4-[1-(2-morpholin-4-ylethyl)-4-phenoxy-1H-benzimidazol-5-yl]-1,6-dihydro-7H-pyrrolo[2,3-c]pyridin-7-one], the pIC50 is at least 6.00 in test [1], at least 6.00 in test [2], above 7.00 in test [3] and above 7.00 in test [4].
As for `Cn1cc(-c2ccc3ncn(Cc4ccccc4)c3c2Oc2ccccc2)c2cc[nH]c2c1=O` [Example 45, 4-(1-Benzyl-7-phenoxy-1H-benzimidazol-6-yl)-6-methyl-1,6-dihydro-7H-pyrrolo[2,3-c]pyridin-7-one], the pIC50 in test [1] is at least 6.00; in test [2], at least 6.00; in test [3], above 7.00; in test [4], above 7.00.
Regarding `Cn1cc(-c2ccc3c(ncn3Cc3ccccc3)c2Oc2ccccc2)c2cc[nH]c2c1=O` [Example 46, 4-(1-Benzyl-4-phenoxy-1H-benzimidazol-5-yl)-6-methyl-1,6-dihydro-7H-pyrrolo[2,3-c]pyridin-7-one], the pIC50 is at least 6.00 in test [1], at least 6.00 in test [2], above 7.00 in test [3] and above 7.00 in test [4].
For the compound `Cn1cc(-c2ccc3ncn(CCc4ccccc4)c3c2Oc2ccccc2)c2cc[nH]c2c1=O` [Example 47, 6-Methyl-4-[7-phenoxy-1-(2-phenylethyl)-1H-benzimidazol-6-yl]-1,6-dihydro-7H-pyrrolo[2,3-c]pyridin-7-one], the pIC50 in test [1] was at least 6.00; in test [2], at least 6.00; in test [3], above 7.00; in test [4] it was above 7.00.
As for `Cn1cc(-c2ccc3c(ncn3CCc3ccccc3)c2Oc2ccccc2)c2cc[nH]c2c1=O` [Example 48, 6-Methyl-4-[4-phenoxy-1-(2-phenylethyl)-1H-benzimidazol-5-yl]-1,6-dihydro-7H-pyrrolo[2,3-c]pyridin-7-one], the pIC50 in test [1] is at least 6.00; in test [2] it was at least 6.00; in test [3], above 7.00; in test [4] it was above 7.00.
`Cn1cc(-c2ccc3ncn(CCCC#N)c3c2Oc2ccccc2)c2cc[nH]c2c1=O` [Example 51, 4-[6-(6-Methyl-7-oxo-6,7-dihydro-1H-pyrrolo[2,3-c]pyridin-4-yl)-7-phenoxy-1H-benzimidazol-1-yl]butanenitrile]: the pIC50 in test [1] was at least 6.00; in test [2], at least 6.00; in test [3], above 7.00; in test [4], above 7.00.
`Cn1cc(-c2ccc3c(ncn3CCCC#N)c2Oc2ccccc2)c2cc[nH]c2c1=O` [Example 52, 4-[5-(6-Methyl-7-oxo-6,7-dihydro-1H-pyrrolo[2,3-c]pyridin-4-yl)-4-phenoxy-1H-benzimidazol-1-yl]butanenitrile]: the pIC50 was at least 6.00 in test [1], at least 6.00 in test [2], above 7.00 in test [3] and above 7.00 in test [4].

As a reminder, the pIC50 is the negative decadic logarithm of the IC50, by convention in mol/L.
